For 24 molecules, EC50 results are on record in patent US10604509B2, “Nrf2 regulators” (GlaxoSmithKline Intellectual Property Development Limited, priority 2015, dated 2020).

pEC50: −log10 of the molar value. Where a name gives a salt, the structure may show the parent alone. Where only a bound is given, the exact number is not on record here.

In one test the test system is NQO1 specific enzyme activity in BEAS-2B cells. The test can be described thus: BEAS-2B NQO1 MTT assay. The class given is cell-based. To be noted: BEAS-2B cells, 48 hours with compound, MTT readout; formic acid salt; read-out: EC50 of NQO1 specific activity induction. The procedure, abridged:
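NQO1 specific activity, an NRF2 activation marker, read kinetically as absorbance change at 570 nm for 30 min after MTT cocktail addition to crude lysates of BEAS-2B cells exposed 48 h to compound. Three-parameter fit of Delta OD/min against log concentration gives EC50; lysate portion used for Cell Titer Glo.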
A general note: Formazan colour is commonly taken as a measure of viable cells.
One may read the pEC50 as the negative decadic logarithm of the EC50, by convention in mol/L. As to `Cc1ccc(C(c2ccc3c(nnn3C)c2C)C(C)(C)C(=O)O)cc1Cn1ccnc1CN1CCCCCC1` (stereo not drawn) [Example 151, 3-(3-((2-(Azepan-1-ylmethyl)-1H-imidazol-1-yl)methyl)-4-methylphenyl)-3-(1,4-dimethyl-1H-benzo-[d][1,2,3]triazol-5-yl)-2,2-domethylpropanoic acid, 0.3 formic acid salt], the pEC50 was 8.00 to 9.00.

The same test, now with this note: BEAS-2B cells, 48 hours with compound, MTT readout; trifluoroacetic acid salt; read-out: EC50 of NQO1 specific activity induction.
Take `Cc1ccc(C(c2ccc3c(nnn3C)c2C)C(C)(C)C(=O)O)cc1Cn1ccnc1CN1CCCCCC1` (stereo not drawn) [Example 141, 3-(3-((2-(Azepan-1-ylmethyl)-1H-imidazol-1-yl)methyl)-4-methylphenyl)-3-(1,4-dimethyl-1H-benzo[d][1,2,3]triazol-5-yl)-2,2-dimethylpropanoic acid, trifluoroacetic acid salt]: the negative logarithm of the EC50 (pEC50) is 5.00 to 6.00.

The same test, now with this note: Homo sapiens, BEAS-2B, 48 h, BEAS-2B cells, 48 hours with compound, MTT readout; read-out: EC50 of NQO1 specific activity induction.
On to `Cc1ccc(C(c2ccc3c(nnn3C)c2C)C(C)(C)C(=O)O)cc1Cn1ccnc1CN1CCCOCC1` (stereo not drawn) [Example 138, 3-(3-((2-((1,4-Oxazepan-4-yl)methyl)-1H-imidazol-1-yl)methyl)-4-methylphenyl)-3-(1,4-dimethyl-1H-benzo[d][1,2,3]triazol-5-yl)-2,2-dimethylpropanoic Acid], for which the pEC50 is 5.00 to 6.00.

`Cc1ccc(C(c2ccc3c(nnn3C)c2C)C(C)(C)C(=O)O)cc1Cn1ccnc1CN1CCC(C)CC1` (stereo not drawn) [Example 139, 3-(1,4-Dimethyl-1H-benzo[d][1,2,3]triazol-5-yl)-2,2-dimethyl-3-(4-methyl-3-((2-((4-methylpiperidin-1-yl)methyl)-1H-imidazol-1-yl)methyl)phenyl) propanoic acid]: the pEC50 is 5.00 to 6.00.

`CCC1CCN(Cc2nccn2Cc2cc(C(c3ccc4c(nnn4C)c3C)C(C)(C)C(=O)O)ccc2C)CC1` (stereo not drawn) [Example 140, 3-(1,4-Dimethyl-1H-benzo[d][1,2,3]triazol-5-yl)-3-(3-((2-((4-ethylpiperidin-1-yl)methyl)-1H-imidazol-1-yl)methyl)-4-methylphenyl)-2,2-dimethylpropanoic acid, formic acid salt]: the pEC50 is 5.00 to 6.00.

`Cc1ccc(C(c2ccc3c(nnn3C)c2C)C(C)(C)C(=O)O)cc1Cn1ccnc1CN1CCOCC1` (stereo not drawn) [Example 142, 3-(1,4-Dimethyl-1H-benzo[d][1,2,3]triazol-5-yl)-2,2-dimethyl-3-(4-methyl-3-((2-(morpholinomethyl)-1H-imidazol-1-yl)methyl)phenyl) propanoic acid, trifluoroacetic acid salt]: the pEC50 was 6.00 to 7.00.

As for `Cc1ccc(C(c2ccc3c(nnn3C)c2C)C(C)(C)C(=O)O)cc1Cn1ccnc1CC1CCCCC1` (stereo not drawn) [Example 143, 3-(3-((2-(Cyclohexylmethyl)-1H-imidazol-1-yl)methyl)-4-methylphenyl)-3-(1,4-dimethy-1H-benzo[d][1,2,3]triazol-5-yl)-2,2-dimethylpropanoic acid, trifluoroacetic acid salt], the pEC50 was 5.00 to 6.00.

For `Cc1ccc(C(c2ccc3c(nnn3C)c2C)C(C)(C)C(=O)O)cc1Cn1ccnc1CN1CCO[C@H](C)C1` (stereo partly drawn) [Example 144, 3-(1,4-Dimethyl-1H-benzo[d][1,2,3]triazol-5-yl)-2,2-dlmethyl-3-(4-methyl-3-((2-(((R)-2-methylmorpholino)methyl)-1H-imidazol-1-yl)methyl)phenyl) propanoic acid, trifluoroacetic acid salt], the negative logarithm of the EC50 (pEC50) was 6.00 to 7.00.

Consider `Cc1ccc(C(c2ccc3c(nnn3C)c2C)C(C)(C)C(=O)O)cc1Cn1ccnc1CC1CCOCC1` (stereo not drawn) [Example 145, 3-(1,4-Dimethyl-1H-benzo[d][1,2,3]triazol-5-yl)-2,2-dimethyl-3-(4-methyl-3-((2-((tetrahydro-2H-pyran-4-yl)methyl)-1H-imidazol-1-yl)methyl)phenyl) propanoic acid, trifluoroacetic acid salt], for which the pEC50 was 6.00 to 7.00.

In the case of `Cc1ccc(C(CC(=O)O)c2ccc3c(nnn3C)c2C)cc1Cn1ccnc1CC1CCCCCC1` (stereo not drawn) [Example 146, 3-(3-((2-(Cycloheptylmethyl)-1H-imidazol-1-yl)methyl)-4-methylphenyl)-3-(1,4-dimethyl-1H-benzo[d][1,2,3]triazol-5-yl)propanoic acid, formic acid salt], the pEC50 is 7.00 to 8.00.

As to `Cc1ccc(C(CC(=O)O)c2ccc3c(nnn3C)c2C)cc1Cn1ccnc1CN1CCCCCC1` (stereo not drawn) [Example 147, 3-(3-((2-(Azepan-1-ylmethyl)-1H-imidazol-1-yl)methyl)-4-methylphenyl)-3-(1,4-dimethyl-1H-benzo[d][1,2,3]triazol-5-yl)propanoic acid, formic acid salt], the pEC50 was 5.00 to 6.00.

Consider `Cc1ccc(C(CC(=O)O)c2ccc3c(nnn3C)c2C)cc1Cn1ccnc1CC1CCCC1` (stereo not drawn) [Example 148, 3-(3-((2-(Cyclopentylmethyl)-1H-imidazol-1-yl)methyl)-4-methylphenyl)-3-(1,4-dimethyl-1H-benzo[d][1,2,3]triazol-5-yl)propanoic acid], for which the negative-log EC50 (pEC50) is 6.00 to 7.00.

With `Cc1ccc(C(CC(=O)O)c2ccc3c(nnn3C)c2C)cc1Cn1ccnc1CN1CCC(F)(F)CC1` (stereo not drawn) [Example 149, 3-(3-((2-((4,4-Difluoropiperidin-1-yl)methyl)-1H-imidazol-1-yl)methyl)-4-methylphenyl)-3-(1,4-dimethyl-1H-benzo[d][1,2,3]triazol-5-yl)propanoic acid], the pEC50 is 6.00 to 7.00.

Turning to `Cc1ccc([C@@H](c2ccc3c(nnn3C)c2C)C(C)(C)C(=O)O)cc1Cn1ccnc1CN1CCCCC1` [Example 150, (S)-3-(1,4-Dimethyl-1H-benzo[d][1,2,3]triazol-5-yl)-2,2-dimethyl-3-(4-methyl-3-((2-(piperidin-1-ylmethyl)-1H-imidazol-1-yl)methyl)phenyl) propanoic acid], the pEC50 was greater than 9.00.

As to `CCC1CCN(Cc2nccn2Cc2cc([C@H](c3ccc4c(nnn4C)c3C)C(C)C(=O)O)ccc2C)CC1` (stereo partly drawn) [Example 152, (3R)-3-(1,4-Dimethyl-1H-benzo[d][1,2,3]triazol-5-yl)-3-(3-((2-((4-ethylpiperidin-1-yl)methyl)-1H-imidazol-1-yl)methyl)-4-methylphenyl)-2-methylpropanoic Acid, Trifluoroacetic Acid Salt], the negative-log EC50 (pEC50) is 6.00 to 7.00.

For `Cc1ccc(C(CC(=O)O)c2ccc3c(nnn3C)c2C)cc1Cn1ccnc1CN1CCCC1` (stereo not drawn) [Example 153, 3-(1,4-Dimethyl-1H-benzo[d][1,2,3]triazol-5-yl)-3-(4-methyl-3-((2-(pyrrolidin-1-ylmethyl)-1H-imidazol-1-yl)methyl)phenyl)propanoic Acid, Formic Acid Salt], the pEC50 is 5.00 to 6.00.

As for `Cc1ccc(C(CC(=O)O)c2ccc3c(nnn3C)c2C)cc1Cn1ccnc1CN1CCCCC1` (stereo not drawn) [Example 154, 3-(1,4-dimethyl-1H-benzo[d][1,2,3]triazol-5-yl)-3-(4-methyl-3-((2-(piperidin-1-ylmethyl)-1H-imidazol-1-yl)methyl)phenyl)propanoic Acid, Trifluoroacetic Acid Salt], the negative logarithm of the EC50 (pEC50) is 6.00 to 7.00.

For `Cc1ccc(C(c2ccc3c(nnn3C)c2C)C(C)(C)C(=O)O)cc1Cn1ccnc1CN1C2CCC1CC2` (stereo not drawn) [Example 155, 3-(3-((2-(7-Azabicyclo[2.2.1]heptan-7-ylmethyl)-1H-imidazol-1-yl)methyl)-4-methylphenyl)-3-(1,4-dimethyl-1H-benzo[d][1,2,3]triazol-5-yl)-2,2-dimethylpropanoic Acid, Trifluoroacetic Acid Salt], the pEC50 was 7.00 to 8.00.

`Cc1ccc(C(c2ccc3c(nnn3C)c2C)C(C)(C)C(=O)O)cc1Cn1ccnc1CN1C2CCCC1CC2` (stereo not drawn) [Example 156, 3-(3-((2-(8-Azabicyclo[3.2.1]octan-8-ylmethyl)-1H-imidazol-1-yl)methyl)-4-methylphenyl)-3-(1,4-dimethyl-1H-benzo[d][1,2,3]triazol-5-yl)-2,2-dimethylpropanoic Acid, Trifluoroacetic Acid Salt]: the pEC50 is 7.00 to 8.00.

As to `Cc1c(C(CC(=O)O)c2ccc(Cl)c(CN3CCCC(n4cccn4)C3)c2)ccc2c1nnn2C` (stereo not drawn) [Example 160, 3-(3-((3-(1H-Pyrazol-1-yl)piperidin-1-yl)methyl)-4-chlorophenyl)-3-(1,4-dimethyl-1H-benzo[d][1,2,3]triazol-5-yl)propanoic Acid, Formic Acid Salt], the pEC50 is 5.00 to 6.00.

Turning to `Cc1c(C(CC(=O)O)c2ccc(Cl)c(CN3CCCC(O)C3)c2)ccc2c1nnn2C` (stereo not drawn) [Example 161, 3-(4-chloro-3-((3-hydroxypiperidin-1-yl)methyl)phenyl)-3-(1,4-dimethyl-1H-benzo[d][1,2,3]triazol-5-yl)propanoic Acid], the pEC50 was 5.00 to 6.00.

In the case of `Cc1ccc(C(c2ccc3c(nnn3C)c2C)C(C)(C)C(=O)O)cc1CN1CCCC(n2cccn2)C1` (stereo not drawn) [Example 162, 3-(3-((3-(1H-Pyrazol-1-yl)piperidin-1-yl)methyl)-4-methylphenyl)-3-(1,4-dimethyl-1H-benzo[d][1,2,3]triazol-5-yl)-2,2-dimethylpropanoic Acid], the pEC50 is 6.00 to 7.00.

Regarding `CCCn1cc(CCC(CC(=O)O)c2ccc(C)c(CN3CCCC(n4cccn4)C3)c2)nn1` (stereo not drawn) [Example 163, 3-(3-((3-(1H-pyrazol-1-yl)piperidin-1-yl)methyl)-4-methylphenyl)-5-(1-propyl-1H-1,2,3-triazol-4-yl)pentanoic Acid, Formic Acid Salt], the pEC50 is 5.00 to 6.00.

As to `COc1cc(C(CC(=O)O)c2ccc(Cl)c(CN3CCCC(n4cccn4)C3)c2)c(C)c2nnn(C)c12` (stereo not drawn) [Example 164, 3-(3-((3-(1H-pyrazol-1-yl)piperidin-1-yl)methyl)-4-chlorophenyl)-3-(7-methoxy-1,4-dimethyl-1H-benzo[d][1,2,3]triazol-5-yl)propanoic Acid, Formic Acid Salt], the pEC50 was 6.00 to 7.00.
